Source: US7846963B2, “2-oxo-heterocyclic compounds and the pharmaceutical compositions comprising the same” (Korea Research Institute of Bioscience and Biotechnology, priority 2003, dated 2010)

system: production of TNF-alpha in RAW 264.7 cells; assay: Inhibition of TNF-alpha production in LPS-treated RAW 264.7 cells, ELISA of culture supernatant; format: cell-based, mouse; conditions: Mus musculus, RAW264.7, Table 23, LPS 0.3 μg/ml, 24 hours, compounds up to 10 μM, IC50 unit inferred
Experimental: To test the inhibiting activity of the compounds prepared from above Examples on the production of TNF-alpha, the concentration of TNF-alpha in the cell supernatant was measured.
Each 200 μl of RAW 264.7 cells (ATCC, USA), a mouse macrophage cell line was seeded onto each well of 96-well microtiter plate (Nunc, Sweden) to the concentration ranging from 1×10^6 cells/ml to 5×10^6 cells/ml, and incubated in DMEM (Dulbeco's modified eagles medium) media containing 5% FBS (fetal bovine serum) at 37° C. in 5% CO2 incubator.
Various concentrations of the compounds of the present invention ranging from […] to 10 μM and LPS (Sigma, USA) in the final concentration of 0.3 μg/ml were treated to activated cell simultaneously. The treated cells were cultured at 37° C. for 24 hours in 5% CO2 incubator and the cultured cells were collected after the cultivation
And then the concentration of TNF-alpha secreted from the culture supernatant of RAW 264.7 cells was determined by ELISA according to the manufacture's instruction (R&D Systems, Minneapolis, Minn.).
The result was shown in Table 23 (AA: IC50's<1, A: IC50's<5, B: IC50's<10, C: IC50's>10).

Row | SMILES | IC50 [µM]
1 | C=CCN1CC=C(CCC(=O)NO)C1=O [Example 51, 3-(1-allyl-2-oxo-2,5-dihydro-1H-pyrrol-3-yl)-N-hydroxy-propionamide] | > 10
2 | O=C(CCC1=CCN(Cc2ccc(NC(=O)c3ccccc3)cc2)C1=O)NO [Example 18, N-{4-[3-(2-hydroxycarbamoyl-ethyl)-2-oxo-2,5-dihydro-pyrrole-1-yl-methyl]-phenyl}-benzamide] | > 10
3 | COc1ccc(CN2CCC=C(CCC(=O)NO)C2=O)c(OC)c1 [Example 57, 3-[1-(2,4-Dimethoxybenzyl)-2-oxo-1,2,5,6-tetrahydropyridin-3-yl]N-hydroxypropionamide] | < 10
4 | COc1cccc(CN2CC=C(CCC(=O)NO)C2=O)c1 [Example 10, N-hydroxy-3-[1-(3-methoxy-benzyl)-2-oxo-2,5-dihydro-1H-pyrrol-3-yl]-propionamide] | < 5
5 | O=C(O)CCC1=CCN(Cc2ccccc2)C1=O [Example 17, 3-(1-benzyl-2-oxo-2,5-dihydro-1H-pyrrol-3-yl)-propionic acid] | > 10
6 | O=C(CCC1=CCN(CCc2ccc(F)cc2)C1=O)NO [Example 30, 3-{1-[2-(4-fluoro-phenyl)-ethyl]-2-oxo-2,5-dihydro-1H-pyrrol-3-yl}-N-hydroxy-propionamide] | < 5
7 | COc1ccc(CN2CCC=C(CC(=O)O)C2=O)c(OC)c1 [Example 87, [1-(2,4-dimethoxy-benzyl)-2-oxo-1,2,5,6-tetrahydro-pyridin-3-yl]-acetic acid] | < 1
8 | O=C(CCC1=CCN(Cc2ccccc2)C1=O)NO [Example 2, 3-(1-benzyl-2-oxo-2,5-dihydro-1H-pyrrol-3-yl)-N-hydroxy-propionamide] | < 5
9 | O=C(O)CCC1=CCCNC1=O [Example 99, 3-(2-oxo-1,2,5,6-tetrahydro-pyridin-3-yl)-propionic acid] | < 10
10 | O=C(CCC1=CCN(CCc2ccccc2Br)C1=O)NO [Example 34, 3-{1-[2-(2-bromo-phenyl)-ethyl]-2-oxo-2,5-dihydro-1H-pyrrol-3-yl}-N-hydroxy-propionamide] | < 5
11 | CC(=O)Nc1ccc(CN2CCC=C(CCC(=O)NO)C2=O)cc1 [Example 74, 3-[1-(4-acetylamino-benzyl)-2-oxo-1,2,5,6-tetrahydro-pyridin-3-yl]-N-hydroxy-propionamide] | > 10
12 | O=C(CCC1=CCN(CCc2ccccc2)C1=O)NO [Example 3, N-hydroxy-3-(2-oxo-1-phenethyl-2,5-dihydro-1H-pyrrol-3-yl)-propionamide] | < 5
13 | O=C(O)CC1=CCCN(CCc2ccccc2)C1=O [Example 89, (2-oxo-1-phenethyl-1,2,5,6-tetrahydro-pyridin-3-yl)-acetic acid] | < 5
14 | CC(=O)Nc1ccc(CN2CCC=C(CCC(=O)O)C2=O)cc1 [Example 78, 3-[1-(4-acetylamino-benzyl)-2-oxo-1,2,5,6-tetrahydro-pyridin-3-yl]-propionic acid] | < 5
15 | O=C(O)CCC1=CCCN(Cc2ccc([N+](=O)[O-])cc2)C1=O [Example 65, 3-[1-(4-nitro-benzyl)-2-oxo-1,2,5,6-tetrahydro-pyridin-3-yl)-propionic acid] | > 10
16 | COc1ccc(CN2CCC=C(CC(=O)NO)C2=O)c(OC)c1 [Example 82, 2-[1-(2,4-dimethoxy-benzyl)-2-oxo-1,2,5,6-tetrahydro-pyridin-3-yl]-N-hydroxy-acetamide] | < 5
17 | O=C(CCC1=CCN(CCCc2ccc(Br)cc2)C1=O)NO [Example 44, 3-{1-[3-(4-bromo-phenyl)-propyl]-2-oxo-2,5-dihydro-1H-pyrrol-3-yl]-N-hydroxy-propionamide] | < 5
18 | O=C(CCC1=CCN(CCc2ccc(Br)cc2)C1=O)NO [Example 35, 3-{1-[2-(4-bromo-phenyl)-ethyl]-2-oxo-2,5-dihydro-1H-pyrrol-3-yl}-N-hydroxy-propionamide] | < 5
19 | Cc1ccc(S(=O)(=O)Nc2ccc(CN3CC=C(CCC(=O)NO)C3=O)cc2)cc1 [Example 19, N-hydroxy-3-{2-oxo-1-[4-(toluene-4-sulfonylamino)-benzyl]-2,5-dihydro-1H-pyrrol-3-yl}-propionamide] | < 10
20 | O=C(CCC1=CCN(CCc2ccccc2[N+](=O)[O-])C1=O)NO [Example 31, N-hydroxy-3-{1-[2-(2-nitro-phenyl)-ethyl]-2-oxo-2,5-dihydro-1H-pyrrol-3-yl}-propionamide] | > 10

The remaining lines, values ahead:

Row | IC50 [µM] | SMILES
21 | > 10 | O=C(CC1=CCN(CCc2ccccc2)C1=O)NO [Example 22, N-hydroxy-2-(2-oxo-1-phenethyl-2,5-dihydro-1H-pyrrol-3-yl)-acetamide]
22 | < 5 | O=C(CCC1=CCN(CCc2cccs2)C1=O)NO [Example 54, N-hydroxy-3-[2-oxo-1-(2-thiophen-2-yl-ethyl)-2,5-dihydro-1H-pyrrol-3-yl]-propionamide]
23 | < 5 | O=C(CCCC1=CCCN(CCCCc2ccccc2)C1=O)NO [Example 98]
24 | < 5 | O=C(CCC1=CCN(CCc2ccccc2F)C1=O)NO [Example 28, 3-{1-[2-(2-fluoro-phenyl)-ethyl]-2-oxo-2,5-dihydro-1H-pyrrol-3-yl}-N-hydroxy-propionamide]
25 | > 10 | COc1ccc(CN2CC=C(CCC(=O)O)C2=O)c(OC)c1 [Example 16, 3-[1-(2,4-dimethoxy-benzyl)-2-oxo-2,5-dihydro-1H-pyrrol-3-yl]-propionic acid]
26 | < 1 | C=CCN1CCC=C(CCC(=O)NO)C1=O [Example 101, 3-(1-Allyl-2-oxo-1,2,5,6-tetrahydro-pyridin-3-yl)-N-hydroxy-propionamide]
27 | < 5 | O=C(CC1CCCN(CCc2ccccc2)C1=O)NO (stereo not shown) [Example 93, (2-oxo-1-phenethyl-piperidine-3-yl)-N-hydroxy-acetamide]
28 | < 5 | O=C(CCC1=CCN(CCCCc2ccccc2)C1=O)NO [Example 5, N-hydroxy-3-[2-oxo-1-(4-phenyl-butyl)-2,5-dihydro-1H-pyrrol-3-yl]-propionamide]
29 | < 5 | CC(C)c1ccc(CCCN2CC=C(CCC(=O)NO)C2=O)cc1 [Example 43, N-hydroxy-3-{1-[3-(4-isopropyl-phenyl)-propyl]-2-oxo-2,5-dihydro-1H-pyrrol-3-yl]-propionamide]
30 | < 5 | O=C(CCC1=CCN(CCc2cccc3ccccc23)C1=O)NO [Example 52, N-hydroxy-3-[1-(2-naphthalene-1-yl-ethyl)-2-oxo-2,5-dihydro-1H-pyrrol-3-yl]-propionamide]
31 | < 5 | O=C(CCC1=CCCNC1=O)NOCc1ccccc1 [Example 100, N-Benzyloxy-3-(2-oxo-1,2,5,6-tetrahydro-pyridin-3-yl)-propionamide]
32 | > 10 | COc1ccc(CN2CC=C(CC(=O)NO)C2=O)c(OC)c1 [Example 21, 2-[1-(2,4-dimethoxy-benzyl)-2-oxo-2,5-dihydro-1H-pyrrol-3-yl]-N-hydroxy-acetamide]
33 | > 10 | O=C(CCC1=CCCN(Cc2ccc(NC(=O)c3ccccc3)cc2)C1=O)NO [Example 75, N-4-[5-(2-hydroxycarbamoyl-ethyl)-6-oxo-3,6-dihydro-2-pyridin-1-yl-methyl]-phenyl-benzamide]
34 | > 10 | O=C(CCC1=CCCN(CCc2cccs2)C1=O)NO [Example 104, N-hydroxy-3-[2-oxo-1-(2-thiophen-2-yl-ethyl)-1,2,5,6-tetrahydro-pyridin-3-yl]-propionamide]
35 | > 10 | O=C(CCC1=CCN(CCc2cccc([N+](=O)[O-])c2)C1=O)NO [Example 32, N-hydroxy-3-{1-[2-(3-nitro-phenyl)-ethyl]-2-oxo-2,5-dihydro-1H-pyrrol-3-yl}-propionamide]
36 | < 5 | O=C(CCC1=CCCN(CCc2ccccc2)C1=O)NO [Example 60]
37 | < 5 | O=C(O)CCC1=CCCN(Cc2ccc(NC(=O)c3ccccc3)cc2)C1=O [Example 79, 3-[1-(4-benzoylamino-benzyl)-2-oxo-1,2,5,6-tetrahydro-pyridin-3-yl]-propionic acid]
38 | < 1 | CN1CCC=C(CCC(=O)NO)C1=O [Example 102, N-hydroxy-3-(1-methyl-2-oxo-1,2,5,6-tetrahydro-pyridin-3-yl)-propionamide]
39 | < 1 | O=C(O)CC1=CCCN(Cc2ccccc2)C1=O [Example 88, (1-benzyl-2-oxo-1,2,5,6-tetrahydro-pyridin-3-yl)-acetic acid]
40 | < 10 | COc1ccccc1CN1CC=C(CCC(=O)NO)C1=O [Example 9, N-hydroxy-3-[1-(2-methoxy-benzyl)-2-oxo-2,5-dihydro-1H-pyrrol-3-yl]-propionamide]
41 | < 1 | O=C(CCC1=CCN(CCc2ccc3ccccc3c2)C1=O)NO [Example 53, N-hydroxy-3-[1-(2-naphthalene-2-yl-ethyl)-2-oxo-2,5-dihydro-1H-pyrrol-3-yl]-propionamide]
42 | < 5 | O=C(CCC1=CCN(CCCc2ccc(Cl)cc2)C1=O)NO [Example 45, 3-{1-[3-(4-chloro-phenyl)-propyl]-2-oxo-2,5-dihydro-1H-pyrrol-3-yl]-N-hydroxy-propionamide]
43 | < 5 | COc1ccc(CN2CCC=C(CCCC(=O)NO)C2=O)cc1 [Example 95, 4-[1-(4-methoxy-benzyl)-2-oxo-1,2,5,6-tetrahydro-pyridin-3-yl]-N-hydroxy-butylamide]
